Test results taken from PMC8752738, “A propolis-derived small molecule ameliorates metabolic syndrome in obese mice by targeting the CREB/CRTC2 transcriptional complex” (Nature Communications, 2022).
Values joined by “and” are separate entries in the source; they are usually repeats but may differ in a detail not shown here. Equal entries are not always repeated.

Experiments:
[1] = test system: mouse Lxra promoter; assay: Truncated Lxra-LUC reporter in HEK293T; type: cell-based; details: for Relative luciferase reporter activity of mouse LXRa promotor deletion series, group mean (Mean 2) / Relative luciferase reporter activity of mouse LXRa promotor deletion series, group mean (Mean 1) / Relative luciferase reporter activity of mouse LXRa promotor deletion series: APC 10uM; for Relative luciferase reporter activity of mouse LXRa promotor deletion series: individual replicates
Protocol: Fig. 7 APC inhibits SREBP1 expression via the CRE-LXRα-LXRE axis. a Quantitative PCR analysis of hepatic expressions of Lxra, Ppra, Pprg, Rxra in DIO mice, which were continuously i.p. injected with control vehicle (VEH) or APC (20 mg/kg) with indicated doses one time daily for 5 weeks (n = 6 per group). One of two independent experiments is shown here. Data are represented as mean ± SEM. *P < 0.05; **P < 0.01; P values were determined by two-way ANOVA followed Bonferroni’s multiple comparisons test. b Immunoblotting analysis of hepatic LXRα and premature SREBP1 protein levels in the livers of DIO mice injected APC for 5 weeks as (a). One of three independent experiments is shown here (left). The relative protein of LXRα, SREBP1, and PPARα normalized by GAPDH is shown as a bar graph (right) (n = 3). Data are represented as mean ± SEM. *P < 0.05; **P < 0.01; P values were determined by two-way ANOVA followed Bonferroni’s multiple comparisons test. c CHIP analysis LXRa and RXRa recruited to the promoter of the mouse Srebf1 (top) gene in primary hepatocytes from wild C57 mice and pretreated APC (10 μM) for 1-h (bottom) (n = 4 per treatment). One of three independent experiments presented here. Data are represented as mean ± SEM. *P < 0.05; **P < 0.01; P values were determined by two-way ANOVA followed Bonferroni multiple comparisons test. d CHIP analysis of CREB and CRTC2 occupancy over the half CRE sites in the Lxra promoter (Top) in primary mouse hepatocytes overexpressing CRTC2, pretreated with APC (10 μM) for 1-h prior to 1-h glucagon stimulation (Gluc, 100 nM) (bottom) (n = 4 per treatment). One of three independent experiments presented here. Data are represented as mean ± SEM. *P < 0.05; **P < 0.01; P values were determined by two-way ANOVA followed Bonferroni’s multiple comparisons test. e Reporter activity of truncated Lxra-LUC reporter. The luciferase reporter was driven by mouse Lxra promoter (−1342) or truncations (−784 and −178) co-transfected with MYC-Creb and FLAG-Crtc2-S171A in HEK293T cells, and pretreated with APC prior to stimulation with FSK (10 nM) for 4-h (n = 3 per treatment). One of three independent experiments presented here. Data are represented as mean ± SEM. *P < 0.05; **P < 0.01; P values were determined by two-way ANOVA followed Bonferroni’s multiple comparisons test. f Quantitative PCR analysis of the expression of CRTC2, Lxra, Srebf-1c, and Srebf-2, in primary hepatocytes, which were infected by LV-Crtc2-S171A or control and incubated with APC (10 μM) for 8-h (n = 3 per treatment). One of three independent experiments presented here. Data are represented as mean ± SEM. *P < 0.05; **P < 0.01; P values were determined by two-way ANOVA followed Bonferroni’s multiple comparisons test. g Quantitative PCR analysis of Lxra gene expression in the liver of CRTC2-KO mice. Be induced by high-fat diet for 8 weeks, with Crtc2-KO mice and wild-type littermates administered VEH (vehicle control), MET (metformin, 200 mg/kg), or APC (20 mg/kg) for 3 weeks, followed by fasting 8-h before anesthesia (n = 5 per group). Data are represented as mean ± SEM. *P < 0.05; **P < 0.01; P values of Crtc2 gene were determined by unpaired two-tailed t test with Welch’s correction, and P values of Lxra gene were determined by two-way ANOVA followed Bonferroni’s multiple comparisons test. h Immunoblotting analysis of LXRα protein in the liver of these mice as in (g). One of two independent experiments is presented here (top), and the relative concentration of LXRα normalized to ACTIN is shown as a bar graph (bottom). (n = 5 mice per group, two technological repeats represent a composite pool). Data are represented as mean ± SEM. *P < 0.05; **P < 0.01; P values were determined by two-way ANOVA followed Bonferroni’s multiple comparison test. Source data for this figure are provided as source data file.

[2] = target: T1, CREB / CRTC3 interaction (Homo sapiens, UniProt P16220); assay: Co-immunoprecipitation of GFP-CRTC3 by MYC-CREB, HEK293T; type: cell-based; details: overexpression HEK293T cells, APC 10 μM
T1 construct: expressed in transfected cells; host or cells: HEK293T
Protocol: 1 Supplementary Figure 2.
2 a) Immunoblot of HA-P300 recovered from HEK293T cell lysate using GST-CREB beads. APC
3 (10 μM) was incubated with cells for 1-h before FKS (10 nM) stimulation and was included in the
4 following pull-down mixtures (n=3). One of two independent experiments presented here.
5 b) Immunoblot for recovered GFP-CRTC1 or (c) GFP-CRTC3 immunoprecipitated by MYC-CREB
6 from overexpression HEK293T cell line. APC (10 μM) was incubated with cells for 1-h before FKS
7 (10 nM) stimulation and was included in the following pull-down mixtures. One of two independent
8 experiments presented here.
9 d) SPR sonogram traces of APC binding with HIS-CREB proteins immobilized to NTA-chip. The
10 concentration series of APC was as indicated.
11 e) SPR sonogram traces of APC flowing through HIS-CRTC2-S171A proteins immobilized on
12 NTA-chip. The concentration of APC was as indicated.
13 f) The luciferase enzymatic activity of HEK293T incubated with APC. Cells over-expressed
14 luciferase CRE-Luc reporter and were stimulated by FSK (10 nM) for 5-h before lysis, which was
15 then incubated with APC (concentration indicated) for 30 min before luciferase activity determination
16 (n=3 per treatment). Data are represented as mean ± SEM. *, p < 0.05; **, p < 0.01; p values were
17 determined by one-way ANOVA followed Dunnett’s multiple comparisons test. […]

T1 sequence (P16220 whole entry): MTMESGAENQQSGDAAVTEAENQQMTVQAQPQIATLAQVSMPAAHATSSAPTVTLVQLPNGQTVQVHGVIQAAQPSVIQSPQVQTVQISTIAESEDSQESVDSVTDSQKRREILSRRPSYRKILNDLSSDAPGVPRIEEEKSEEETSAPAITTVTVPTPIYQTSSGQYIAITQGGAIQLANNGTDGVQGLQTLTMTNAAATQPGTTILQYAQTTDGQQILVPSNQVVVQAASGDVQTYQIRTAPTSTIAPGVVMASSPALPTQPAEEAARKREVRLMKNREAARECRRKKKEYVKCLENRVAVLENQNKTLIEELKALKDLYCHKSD

## CC(C)=CCc1cc(C=CC(=O)O)cc(CC=C(C)C)c1O [APC, 3,5-diprenyl-4-hydroxycinnamic acid]
[1]; -178, CREB/CRTC2-S171A +, Ctrl (no FSK), mean of N=3
  Relative luciferase reporter activity of mouse LXRa promotor deletion series, group mean (Mean 2): 80.85
[1]; -178, CREB/CRTC2-S171A +, FSK, mean of N=3
  Relative luciferase reporter activity of mouse LXRa promotor deletion series, group mean (Mean 1): 101.4
[1]; -178 construct, Ctrl (no FSK), mean of N=3, -1342_Ctrl = 100
  Lxra-LUC reporter activity, Mean: 80.85
[1]; -178 construct, FSK, mean of N=3, -178_Ctrl with FSK = 80.5
  Lxra-LUC reporter activity, Mean: 101.4
[1]; -784, CREB/CRTC2-S171A +, Ctrl (no FSK), mean of N=3
  Relative luciferase reporter activity of mouse LXRa promotor deletion series, group mean (Mean 2): 65.74
[1]; -784, CREB/CRTC2-S171A +, FSK, mean of N=3
  Relative luciferase reporter activity of mouse LXRa promotor deletion series, group mean (Mean 1): 80.88
[1]; -784 construct, Ctrl (no FSK), mean of N=3, -1342_Ctrl = 100
  Lxra-LUC reporter activity, Mean: 65.74
[1]; -784 construct, FSK, mean of N=3, -784_Ctrl with FSK = 84.79
  Lxra-LUC reporter activity, Mean: 80.88
[1]; -1342, CREB/CRTC2-S171A +, Ctrl (no FSK), mean of N=3
  Relative luciferase reporter activity of mouse LXRa promotor deletion series, group mean (Mean 2): 120.4
[1]; -1342, CREB/CRTC2-S171A +, FSK, mean of N=3
  Relative luciferase reporter activity of mouse LXRa promotor deletion series, group mean (Mean 1): 140.5
[1]; -1342 construct, Ctrl (no FSK), mean of N=3, -1342_Ctrl = 100
  Lxra-LUC reporter activity, Mean: 120.4
[1]; -1342 construct, FSK, mean of N=3, -1342_Ctrl with FSK = 265.7
  Lxra-LUC reporter activity, Mean: 140.5
[1]; HEK293T, FSK, attenuated when half CRE site −984 deleted
  Lxrα-luc reporter activity: inhibition of Lxrα-luc reporter activity
[1]; mLXRa promoter region -178, CREB/CRTC2-S171A +, Ctrl (no FSK)
  Relative luciferase reporter activity of mouse LXRa promotor deletion series: 68.909
[1]; mLXRa promoter region -178, CREB/CRTC2-S171A +, Ctrl (no FSK), unstimulated control
  Relative luciferase reporter activity of mouse LXRa promotor deletion series: 81.477 and 92.1755
[1]; mLXRa promoter region -178, CREB/CRTC2-S171A +, FSK, FSK stimulated
  Relative luciferase reporter activity of mouse LXRa promotor deletion series: 110.535 and 84.2634 and 109.449
[1]; mLXRa promoter region -784, CREB/CRTC2-S171A +, Ctrl (no FSK)
  Relative luciferase reporter activity of mouse LXRa promotor deletion series: 58.3809
[1]; mLXRa promoter region -784, CREB/CRTC2-S171A +, Ctrl (no FSK), unstimulated control
  Relative luciferase reporter activity of mouse LXRa promotor deletion series: 73.0822 and 65.7554
[1]; mLXRa promoter region -784, CREB/CRTC2-S171A +, FSK, FSK stimulated
  Relative luciferase reporter activity of mouse LXRa promotor deletion series: 83.8052 and 88.4723 and 70.3736
[1]; mLXRa promoter region -1342, CREB/CRTC2-S171A +, Ctrl (no FSK)
  Relative luciferase reporter activity of mouse LXRa promotor deletion series: 97.1063
[1]; mLXRa promoter region -1342, CREB/CRTC2-S171A +, Ctrl (no FSK), unstimulated control
  Relative luciferase reporter activity of mouse LXRa promotor deletion series: 135.223 and 128.99
[1]; mLXRa promoter region -1342, CREB/CRTC2-S171A +, FSK, FSK stimulated
  Relative luciferase reporter activity of mouse LXRa promotor deletion series: 139.251 and 135.05 and 147.302
[2]
  interaction of CREB and CRTC3: attenuated
